In US20050209157A1, “Short bioactive peptides and methods for their use” (priority 2001, published 2005):
No end group written: not given here.

How the values were obtained:
[1] = tested on: human red blood cells (RBC); experiment: in vitro; type: cell-based; conditions: hemolytic assay, concentration at 50% hemolysis, 1 hour at 37° C.
[2] = tested on: Pseudomonas aeruginosa ATCC 9027; experiment: Antimicrobial assay I, MIC by OD measurement; type: cell-based; conditions: 37° C. for 24 hours, absorbance 620 nm
[3] = tested on: Staphylococcus aureus ATCC 6538; experiment: Antimicrobial assay I, MIC by OD measurement; type: cell-based; conditions: 37° C. for 24 hours, absorbance 620 nm
[4] = tested on: WI38; conditions: MTT, 24 hours with peptide; for WI38 LD50: normal fibroblast line; for LD50 WI38: WI38 normal lung fibroblast line
[5] = tested on: MCF7; experiment: Anti-cancer assay, MTT, LD50; type: cell-based; conditions: MCF7 breast adenocarcinoma line, MTT, 24 hours with peptide
Description: (§1) Numbers are LD50 values (μg/mL).

[6] = tested on: H1299; experiment: Anti-cancer assay, MTT, LD50; type: cell-based; conditions: 24 hours with peptide, lung large cell carcinoma
Description: as §1

[7] = tested on: HeLaS3; experiment: Anti-cancer assay, MTT, LD50; type: cell-based; conditions: 24 hours with peptide, cervical carcinoma
Description: as §1

[8] = tested on: SW480; experiment: Anti-cancer assay, MTT, LD50; type: cell-based; conditions: SW480 colon adenocarcinoma line, 24 hours with peptide
Description: as §1

[9] = tested on: BMKC; experiment: Anti-cancer assay, MTT, LD50; type: cell-based; conditions: BMKC cloned melanoma line, 24 hours with peptide
Description: as §1

[10] = tested on: PC3; experiment: Anti-cancer assay, MTT, LD50; type: cell-based; conditions: 24 hours with peptide, prostate adenocarcinoma
Description: as §1

[11] = tested on: yeast (Saccharomyces cerevisiae); experiment: Antimicrobial assay I, yeast assay in RPMI 1640; type: cell-based; conditions: RPMI 1640 media

Row | Substance | LD50 [1] | paerug9027 (MIC) [2] | staph6538 (MIC) [3] | WI38 LD50 [4] | LD50 WI38 [4] | LD50 MCF7 [5] | H1299 LD50 [6] | HeLaS3 LD50 [7] | LD50 SW480 [8] | LD50 BMKC [9] | PC3 LD50 [10] | yeast (MIC or MFC) [11]
1 | FALALKALKK-NH2 [P169] | > (> indicates greater than 1000) | 100 µg/mL | 100 µg/mL | > (> indicates greater than 1000) | > (> indicates greater than 1000) | 510 µg/mL | 640 µg/mL | > (> indicates greater than 1000) | > (> indicates greater than 1000) | 530 µg/mL | > (> indicates greater than 1000) | 100 µg/mL
2 | FALKALKKAL-NH2 [P170, FALKALKKAL-NH2] | > (> indicates greater than 1000) | 100 µg/mL | 200 µg/mL | > (> indicates greater than 1000) | > (> indicates greater than 1000) | 940 µg/mL | > (> indicates greater than 1000) | > (> indicates greater than 1000) | > (> indicates greater than 1000) | > (> indicates greater than 1000) | > (> indicates greater than 1000) | 100 µg/mL
3 | FAKKALKALKKL-NH2 [P47] | > (> indicates greater than 1000) | 100 µg/mL | 200 µg/mL | > (> indicates greater than 1000) | > (> indicates greater than 1000) | 575 µg/mL | > (> indicates greater than 1000) | > (> indicates greater than 1000) | > (> indicates greater than 1000) | 700 µg/mL | > (> indicates greater than 1000) | 50 µg/mL
4 | FAKLF-NH2 [P129, FAKLF-NH2] | > (> indicates greater than 1000) | 25 µg/mL | 100 µg/mL | > (> indicates greater than 1000) | > (> indicates greater than 1000) | > (> indicates greater than 1000) | 790 µg/mL | 550 µg/mL | 550 µg/mL | > (> indicates greater than 1000) | > (> indicates greater than 1000) | 100 µg/mL
5 | KAKLAKKALAKLL-NH2 [P149] | > (> indicates greater than 1000) | 100 µg/mL | 50 µg/mL | > (> indicates greater than 1000) | > (> indicates greater than 1000) | > (> indicates greater than 1000) | > (> indicates greater than 1000) | > (> indicates greater than 1000) | > (> indicates greater than 1000) | > (> indicates greater than 1000) | > (> indicates greater than 1000) | 200 µg/mL
6 | FAKKLAKLAKKL-NH2 [P106] | > (> indicates greater than 1000) | 25 µg/mL | 100 µg/mL | > (> indicates greater than 1000) | > (> indicates greater than 1000) | 620 µg/mL | 920 µg/mL | 700 µg/mL | 570 µg/mL | 690 µg/mL | > (> indicates greater than 1000) | 100 µg/mL
